# What was measured:
# Format in all cases: cell-based
# platelets [1] = experiment: Acoustic separation of platelets from lymphocytes in blood buffy coat samples pretreated with a platelet activator
# Method: Blood buffy coat samples from 3 donors (comprising lymphocytes and platelets) were subjected to acoustic energy, generally as described above. Prior to flowing the blood buffy coat samples through a microfluidic separation channel, the blood buffy coat samples were pretreated. Experimental samples were treated with 8 μM adenosine diphosphate (ADP) in buffer and control samples were treated with buffer only to a final dilution of approximately 1:3 buffy coat:buffer (about 10^9 cells/ml). The samples were incubated for 5 min before separation. The samples were flowed at 0.1 ml/min through a single polystyrene microchannel mounted on an oscillator using the methods described herein. The acoustic force displaced larger and more dense cells and platelet cell aggregates toward a center outlet (waste) while side outlets collected the lymphocyte-enriched product, generally as shown in FIG. 15. The products were compared to the input solution using both a hematology analyzer (Sysmex Corporation, Kobe, Hyogo Prefecture, Japan) to count cells and ELISA of the platelet-specific glycoprotein IIb/IIIa.
# platelets [2] = experiment: Acoustic separation of platelets from lymphocytes in a blood sample pretreated with a platelet activator; conditions: adenosine diphosphate 2-50 μM, incubated 10-20 minutes
# Method: A blood sample comprising lymphocytes and platelets was subjected to acoustic energy, generally as described above. Prior to flowing the blood sample through a microfluidic separation channel, the blood sample was pretreated by diluting with an additive comprising a platelet activator, adenosine diphosphate. Adenosine diphosphate was added at a concentration of 2-50 μM. The samples were incubated for 10-20 minutes before starting the acoustic separation.
# platelets [3] = experiment: Platelet aggregate size produced by ADP; conditions: 10 μM ADP
structure (smiles),measurement,setting,value
"Nc1ncnc2c1ncn2[C@@H]1O[C@H](COP(=O)(O)OP(=O)(O)O)[C@@H](O)[C@H]1O [ADP, adenosine diphosphate]",platelet content by glycoprotein IIb/IIIa assay (ELISA),platelets [1]; ADP 8 μM,significantly reduced platelet content
same,reduction of platelet count in the product versus control,platelets [1]; ADP 8 μM,nearly ten-fold
same,decrease of platelet count in the product compared to the starting material,"platelets [1]; ADP 8 μM in buffer, 5 min incubation, buffy coat from 3 donors, hematology analyzer, buffer control 274% increase",69%
same,hematocrit of product,"platelets [1]; ADP 8 μM, depleted from 10%",4.5%
same,platelet depletion on increasing the concentration,platelets [1]; ADP 32 μM versus 8 μM,did not further improve platelet depletion
same,platelet contamination in the collected lymphocytes compared to controls,platelets [1]; ADP versus buffer-only controls,strongly reduced platelet contamination
same,increase of lymphocyte purity,"platelets [1]; with or without ADP added, input 41% to output 84%",104%
same,lymphocyte output purity,"platelets [1]; with or without ADP added, input purity 41%",84 % WBC
same,response of platelets to the acoustic field,platelets [2],responded more strongly to the acoustic field than individual platelets
same,diameter of platelet aggregates,platelets [3],about 10 μm
